Series [1] deals with A. baumannii HUMC1. Put plainly: Bacteremia synergy assay 3 (murine bacteremia model). It counts as in vivo.
Series [2] in a line: Immunogenicity, antibody production by ELISA. It counts as in vivo. The note with it: mice; 5 mg/kg sc twice in a 3-wk interval; blood 4 weeks after second immunization.
For series [3] the following is noted: reported value; cited from earlier work.
For series [4], the system named is K. Pneumoniae ATCC 13883.
Series [5] concerns E. coli UNT167-1.
The test system of series [6] is P. aeruginosa ATCC 47085.
Series [7] in a line: Post-antibiotic effect (PAE). An excerpt: Post-antibiotic Effect (PAE).
Series [8] relates to A. Baumannii ATCC 19606.
For series [9], the target named is 70 kDa bacterial heat shock protein DnaK (Escherichia coli, UniProt P0A6Y8). Put plainly: Binding to DnaK. From the text: The bacterial target of peptide monomers described herein, such as Chex1-Arg20, is believed to be the C-terminal D-E helix of the 70 kDa bacterial heat shock protein DnaK (Otvos et al., J. Med. Chem. 48:5349 (2005); Kragol et al., Biochemistry 40:3016 (2001); Bikker et al., Chem. Biol. Drug Des. 68:148 (2006)). DnaK is a 650-residue protein comprised of 3 distinct domains: (1) N-terminal nucleotide binding domain, (2) C-terminal substrate binding domain and (3) flexible linking domain. […] Peptide monomers described herein bind to DnaK from multiple bacterial species. The MPC of Chex1-Arg20 is reported to be >100 μM, supporting the conclusion that the antibacterial efficacy is […] non-membranolytic. Because DnaK is present in all bacteria, peptide monomers described herein are effective against a wide variety of bacteria and may be effective in combination with all classes of antibiotics.

Series [10] concerns Burkholderia pseudomallei 1026b. It counts as in vivo.
In series [11] the test system is E. Coli ATCC 29222.
The subject of series [12] is E. coli 5770. Put plainly: Mice challenged ip with E. coli 5770, blood bacterial counts.
Series [13] concerns K. pneumoniae K97/09. In words: microbe, parasite or virus in culture. The note with it: Klebsiella pneumoniae.
Series [14] relates to Acinetobacter baumannii BAA-1805 (MACI). In words: microbe, parasite or virus in culture. Conditions: BAA1805, read-out: MACI MIC (mg/L).
Series [15] deals with K. pneumoniae K97/09. Conditions: K. pneumoniae K97/09; no unit in table (mg/L).
The subject of series [16] is A. baumannii strain (BAA-1605). Put plainly: microbe, parasite or virus in culture. Conditions: Acinetobacter baumannii, BAA1605, read-out: MIC. The format is cell-based.
For series [17], the system named is K. pneumoniae K97/09. Put plainly: FIC checkerboard assay (combinations). It counts as cell-based. Conditions: K. pneumoniae K97/09.

SMILES strings stand for the structures. Converted amounts (≈) assume the structure as drawn. Like-named read-outs stand apart in the source and are kept apart here. Non-standard residues stand in square brackets, D forms with d. Residues, ends and D or L forms follow the SMILES beside them. Ac6c = NC1(C(=O)O)CCCCC1

Chain of 70 kDa bacterial heat shock protein DnaK (P0A6Y8 whole entry, the tested form may be a part): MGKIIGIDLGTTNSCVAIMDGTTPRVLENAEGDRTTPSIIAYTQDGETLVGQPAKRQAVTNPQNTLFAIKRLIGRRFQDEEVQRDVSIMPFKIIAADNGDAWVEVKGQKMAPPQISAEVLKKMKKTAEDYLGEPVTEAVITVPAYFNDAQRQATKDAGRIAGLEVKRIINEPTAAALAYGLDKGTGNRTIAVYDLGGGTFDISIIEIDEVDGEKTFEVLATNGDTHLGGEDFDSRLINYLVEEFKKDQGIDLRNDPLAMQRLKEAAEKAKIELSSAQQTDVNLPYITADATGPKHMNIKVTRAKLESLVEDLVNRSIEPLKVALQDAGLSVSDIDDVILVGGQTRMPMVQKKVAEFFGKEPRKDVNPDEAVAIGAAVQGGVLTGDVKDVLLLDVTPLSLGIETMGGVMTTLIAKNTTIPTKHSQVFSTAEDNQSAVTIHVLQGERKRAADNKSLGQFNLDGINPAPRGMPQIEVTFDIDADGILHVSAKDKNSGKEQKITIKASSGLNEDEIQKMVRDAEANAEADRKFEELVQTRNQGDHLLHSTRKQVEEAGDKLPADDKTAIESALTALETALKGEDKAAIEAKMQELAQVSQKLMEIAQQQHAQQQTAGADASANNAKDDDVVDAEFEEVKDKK

Usually Kd stands for a measure of binding affinity in units of concentration. As for `CC(C)C[C@H](NC(=O)[C@H](Cc1ccc(O)cc1)NC(=O)[C@@H]1CCCN1C(=O)[C@H](CCCNC(=N)N)NC(=O)[C@@H]1CCCN1C(=O)[C@H](CCCCN)NC(=O)[C@H](CC(=O)O)NC(=O)[C@@H]1CCCN1C(=O)[C@H](CCCNC(=N)N)NC(=O)C1(N)CCCCC1)C(=O)N1CCC[C@H]1C(=O)N[C@@H](CCCNC(=N)N)C(=O)N1CCC[C@H]1C(=O)N[C@@H](CCCNC(=N)N)C(=O)N1CCC[C@H]1C(=O)N1CCC[C@H]1C(=O)N[C@@H](CCCNC(=N)N)C(=O)N1CCC[C@H]1C(=O)N[C@H](C(=O)N[C@@H](CCCNC(=N)N)C(N)=O)C(C)C` [Example 1, Chex-RPDKPRPYLPRPRPPRPVR-NH2] (H-[Ac6c]RPDKPRPYLPRPRPPRPVR-NH2), in series [1] (ARV-1502 5.0 mg/kg treatment group), the “Complete response (negative blood culture), test animals” value came out at 100%. In addition, the “Negative blood culture of A. baumannii” value in series [1] (ARV-1502 1.25-5.0 mg/kg treatment groups) is reported as “dose-dependent negative blood culture”. Also, in series [2], the “Antibody production by ELISA” value was “Neither IgG1, IgG2a, IgG3, IgM, nor IgE are observed”. In [3], the MPC is above 100 µM. Also, the MIC in series [4] is 0.8 ± 0.0 µM (≈ 1.98 µg/mL); in series [5] it was 32 µg/mL (≈ 12.9 µM); in series [6], 56.3 ± 4.5 µM (≈ 139 µg/mL); in series [8] it was above 100 µM; in [11] it was 2.6 ± 0.7 µM (≈ 6.44 µg/mL). In addition, the “Post-antibiotic effect (PAE)” value in [7] was found to be 14 h. Moreover, the Kd in [9] is 410 nM. In addition, in series [10] (Chex1-Arg20 5 mg/kg im monotherapy), the “Median survival (days post-challenge)” value was 4 days post-challenge. In [10] (Chex1-Arg20 monotherapy), the Rescue of mice entry is given as “failed to rescue any mouse”. In [10] (in vivo, 5 mg/kg), the “B. pseudomallei load in survivals (CFU/spleen)” value is reported as “No survival”. In addition, the Number of deaths in series [10] (in vivo, 5 mg/kg) was determined as 10. The “Bacterial counts in blood” value in series [12] (2.5 mg/kg ip, 4 h after challenge (before first dose)) was 3.68 × 10^7 CFU/mL; in series [12] (2.5 mg/kg ip, 8 h after challenge) it was 4.2 × 10^6 CFU/mL; in series [12] (2.5 mg/kg ip, 12 h after challenge), <1.7 × 10^6 CFU/mL; in series [12] (2.5 mg/kg ip, 16 h after challenge) it was <1 × 10^6 CFU/mL; in series [12] (2.5 mg/kg ip, 24 h after challenge) it was <4.8 × 10^5 CFU/mL; in series [12] (5 mg/kg ip, 4 h after challenge (before first dose)), 3.68 × 10^7 CFU/mL. In addition, the “Bacterial counts in blood” value in [12] (5 mg/kg ip, 8 h after challenge) is on record as 4.3 × 10^5 CFU/mL; in [12] (5 mg/kg ip, 12 h after challenge), 1.1 × 10^6 CFU/mL; in series [12] (5 mg/kg ip, 16 h after challenge) it was <1.1 × 10^5 CFU/mL; in [12] (5 mg/kg ip, 24 h after challenge) it was <1 × 10^3 CFU/mL; in series [12] (10 mg/kg ip, 4 h after challenge (before first dose)), 3.68 × 10^7 CFU/mL; in series [12] (10 mg/kg ip, 8 h after challenge) it was 2.4 × 10^5 CFU/mL. Further, the “Bacterial counts in blood” value in series [12] (10 mg/kg ip, 12 h after challenge) is reported as 2.9 × 10^5 CFU/mL; in series [12] (10 mg/kg ip, 16 h after challenge), <1 × 10^3 CFU/mL; in series [12] (10 mg/kg ip, 24 h after challenge), <1 × 10^3 CFU/mL. For the same compound, in series [12] (2.5 mg/kg ip, by 24 h), the “Improvement of blood bacterial load” value is on record as “not statistically significant”. Moreover, in [12] (2.5 mg/kg ip, during the 12-h treatment period), the “Reduction of blood bacterial load” value is given as 1.5-2 log 10 units. Further, the “Reduction of blood bacterial counts after inoculation” value in series [12] (5 mg/kg ip) is given as above 2 log 10 CFU/mL. Moreover, the Blood sterilization entry in [12] (5 mg/kg ip, at 24 h) is recorded as “complete sterilization of the blood”. The “Time after the last peptide treatment by which the blood was sterilized” value in series [12] (10 mg/kg ip) is listed as at most 4 h.

Consider `C[C@@H](O)[C@H]1C(=O)N2C(C(=O)O)=C(SCCN=CN)C[C@H]12` [imipenem], for which the MIC in series [13] (K97/09) is above 256 mg/L; in [13] (K97/09, read-out: KPC MIC (mg/L)), above 256 mg/L; in series [14], 64 mg/L (≈ 214 µM); in [16] it was 64 µg/mL (≈ 214 µM). Moreover, in [15], the “MIC of antibiotic alone” value is on record as above 256. Moreover, the ΣFIC in [17] (antibiotic + ARV-1501) worked out at 0.5. Also, the “MIC of antibiotic + ARV-1501” value in series [17] (antibiotic in combination with ARV-1501, no unit in table) is 4.

The values above are taken from patent publication US20210252104A1, “ANTIBACTERIAL PEPTIDE MONOMERS AND COMBINATIONS FOR CO-THERAPY” (ARREVUS, INC., priority 2018, published 2021).
